The source made the active and inactive calls.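 The calls were made as follows: active = cytotoxic compounds whose viability ratio versus DMSO control falls below 0.85 at 10 µM; inactive = the rest.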
System: U937 viability, trypan blue exclusion, 24 h
Test: U937 cell cytotoxicity, late-stage follow-up, cytotoxicity control for Cdc42 probe extension project, trypan blue exclusion (AID 651732)
Details: at 30 µM (top of the series)

COc1ccc(C2CC(c3ccccc3)=NN2c2ccc(S(N)(=O)=O)cc2)cc1 (stereo unspecified)
viability ratio to DMSO: 0.19 (inactive)
